The structures appear in SMILES notation.

This test concerns cells. Description: cell cycle experiments (G2/M). The test is classed as cell-based.

With `N=C(N)c1ccc(OCCCCCOc2ccc(C(=N)N)cc2)cc1` [pentamidine], the “effect on cell cycle” value was “maintain cells in the G2/M cell cycle”.

Values taken from patent US20080234299A1, “Quinazolinones” (MERCK PATENT GMBH, priority 2005, published 2008).
